Where “and” joins values, the source holds several entries; their conditions need not be identical. Equal entries are not always repeated. Toxic doses and inconclusive results are not listed. No stated cut-off is given here; in the data, active means T/C of 150% or more; inactive means T/C below 125%.
System: L1210 leukemia ip in BDF1 mice, survival T/C
Assay: NCI In Vivo Anticancer Drug Screen. Data for tumor model L1210 Leukemia (intraperitoneal) in B6D2F1 (BDF1) mice
Details: endpoint: mean survival time, higher = longer survival
Method in brief: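 Value reflects the ratio of survival in compound-treated mice to survival in vehicle-treated controls, with both groups carrying the same transplanted tumor.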

[1] = dose: 100.0 mg/kg/injection, schedule: Q01DX009 (ip), vehicle: Klucel (hydroxypropylcellulose) (HPC)
[2] = dose: 100.0 mg/kg/injection, schedule: Q04DX003 (ip), vehicle: Klucel (hydroxypropylcellulose) (HPC)
[3] = dose: 200.0 mg/kg/injection, schedule: Q01DX009 (ip), vehicle: Klucel (hydroxypropylcellulose) (HPC)
[4] = dose: 200.0 mg/kg/injection, schedule: Q04DX003 (ip), vehicle: Klucel (hydroxypropylcellulose) (HPC)
[5] = dose: 400.0 mg/kg/injection, schedule: Q01DX009 (ip), vehicle: Klucel (hydroxypropylcellulose) (HPC)
[6] = dose: 400.0 mg/kg/injection, schedule: Q04DX003 (ip), vehicle: Klucel (hydroxypropylcellulose) (HPC)
[7] = dose: 100.0 mg/kg/injection, schedule: Q04DX002 (ip), vehicle: saline
[8] = dose: 200.0 mg/kg/injection, schedule: Q04DX002 (ip), vehicle: saline
[9] = dose: 400.0 mg/kg/injection, schedule: Q04DX002 (ip), vehicle: saline
[10] = dose: 100.0 mg/kg/injection, schedule: Q04DX003 (ip), vehicle: acetone
[11] = dose: 200.0 mg/kg/injection, schedule: Q04DX003 (ip), vehicle: acetone
[12] = dose: 400.0 mg/kg/injection, schedule: Q04DX003 (ip), vehicle: acetone
[13] = dose: 100.0 mg/kg/injection, schedule: Q04DX002 (ip), vehicle: Klucel (hydroxypropylcellulose) (HPC)
[14] = dose: 200.0 mg/kg/injection, schedule: Q04DX002 (ip), vehicle: Klucel (hydroxypropylcellulose) (HPC)
[15] = dose: 400.0 mg/kg/injection, schedule: Q04DX002 (ip), vehicle: Klucel (hydroxypropylcellulose) (HPC)
[16] = dose: 100.0 mg/kg/injection, schedule: Q01DX001 (ip), vehicle: carboxymethylcellulose (CMC)
[17] = dose: 200.0 mg/kg/injection, schedule: Q01DX001 (ip), vehicle: carboxymethylcellulose (CMC)
[18] = dose: 100.0 mg/kg/injection, schedule: Q01DX001 (ip), vehicle: saline
[19] = dose: 200.0 mg/kg/injection, schedule: Q01DX001 (ip), vehicle: saline
[20] = dose: 400.0 mg/kg/injection, schedule: Q01DX001 (ip), vehicle: saline
[21] = dose: 100.0 mg/kg/injection, schedule: Q04DX003 (ip), vehicle: saline
[22] = dose: 200.0 mg/kg/injection, schedule: Q04DX003 (ip), vehicle: saline

Measured: T/C

CCc1c(Cl)nc(N)nc1Nc1ccc(C)c(C)c1
inactive: dose: 100.0 mg/kg/injection, schedule: Q01DX Z (ip), vehicle: methylcellulose (MC) 91 % of control | dose: 200.0 mg/kg/injection, schedule: Q01DX Z (ip), vehicle: methylcellulose (MC) 93 % of control

CC(=O)Nc1ccc(C=Nc2ccccc2)cc1
inactive: [1] 107 % of control | [2] 96 % of control | [3] 102 % of control | [4] 97 % of control | [5] 111 % of control | [6] 97 % of control

Nc1ccc(Nc2ncnc3nc[nH]c23)cc1
inactive: dose: 100.0 mg/kg/injection, schedule: Q04DX003 (ip), vehicle: saline with Tween-80 102 % of control | dose: 200.0 mg/kg/injection, schedule: Q04DX003 (ip), vehicle: saline with Tween-80 98 % of control | dose: 400.0 mg/kg/injection, schedule: Q04DX003 (ip), vehicle: saline with Tween-80 107 % of control

CCCCCCCCCCSCCSCCSCCCCCCCCCC
inactive: [2] 94 % of control

O=[N+]([O-])c1ccc2c(c1)S(=O)c1cc([N+](=O)[O-])c(Br)cc1-2 (stereo unspecified) (tested in a mixture with another compound)
inactive: dose: 50.0 mg/kg/injection, schedule: Q04DX002 (ip), vehicle: saline with Tween-80 96 % of control | dose: 100.0 mg/kg/injection, schedule: Q04DX002 (ip), vehicle: saline with Tween-80 96 % of control | dose: 200.0 mg/kg/injection, schedule: Q04DX002 (ip), vehicle: saline with Tween-80 96 % of control

COc1ccc([N+](=O)[O-])cc1NC(=O)Nc1cccc(F)c1
inactive: dose: 100.0 mg/kg/injection, schedule: Q01DX009 (ip), vehicle: gum acacia 90 % of control | dose: 200.0 mg/kg/injection, schedule: Q01DX009 (ip), vehicle: gum acacia 95 % of control | dose: 400.0 mg/kg/injection, schedule: Q01DX009 (ip), vehicle: gum acacia 90 % of control

Cc1ccc(S(=O)(=O)c2ccc(C)c(N)c2)cc1N
inactive: [7] 105 % of control | [8] 99 % of control | [9] 96 % of control

COCOCP(=O)(OC)OC
inactive: dose: 100.0 mg/kg/injection, schedule: Q01DX001 (ip), vehicle: acetone 102 % of control | [10] 106 % of control | dose: 200.0 mg/kg/injection, schedule: Q01DX001 (ip), vehicle: acetone 98 % of control | [11] 98 % of control | dose: 400.0 mg/kg/injection, schedule: Q01DX001 (ip), vehicle: acetone 95 % of control | [12] 92 % of control

C/C=C/CC1(c2ccccc2)C(=O)NC(=S)NC1=O
inactive: dose: 75.0 mg/kg/injection, schedule: Q01DX001 (ip), vehicle: other 108 % of control | dose: 150.0 mg/kg/injection, schedule: Q01DX001 (ip), vehicle: other 107 % of control | dose: 300.0 mg/kg/injection, schedule: Q01DX001 (ip), vehicle: other 103 % of control

COc1ccc(SC(=O)N(C)C)cc1
inactive: dose: 100.0 mg/kg/injection, schedule: Q01DX001 (ip), vehicle: saline with Tween-80 98 % of control | dose: 200.0 mg/kg/injection, schedule: Q01DX001 (ip), vehicle: saline with Tween-80 94 % of control | dose: 400.0 mg/kg/injection, schedule: Q01DX001 (ip), vehicle: saline with Tween-80 98 % of control

O=C(Nc1cccc(C(F)(F)F)c1)Nc1nccs1
inactive: [1] 100 % of control | [13] 94 % of control | [3] 115 % of control | [14] 108 % of control | [5] 92 % of control | [15] 89 % of control

COc1cc(OC)c(OC)cc1/C=C\c1ccc2ccccc2[n+]1C
inactive: dose: 25.0 mg/kg/injection, schedule: Q04DX003 (ip), vehicle: saline with Tween-80 101 % of control | dose: 50.0 mg/kg/injection, schedule: Q04DX003 (ip), vehicle: saline with Tween-80 90 % of control

O=C(NCCCl)Nc1ccc2c3c1CCCC3CC2 (stereo unspecified)
inactive: dose: 50.0 mg/kg/injection, schedule: Q04DX003 (ip), vehicle: Klucel (hydroxypropylcellulose) (HPC) 106 % of control | [2] 107 % of control | [4] 102 % of control

CC(=O)c1cccc(NC(=O)Nc2cccc(F)c2)c1
inactive: [1] 103 % of control | [3] 97 % of control | [5] 110 % of control

[N-]=[N+]=Nc1ccc2cc3ccccc3nc2c1
inactive: [10] 89 % of control | [11] 95 % of control | [12] 87 % of control

CC(C)CCN1C(c2ccccc2)=CN(Cc2ccccc2)C=C1c1ccccc1
inactive: [13] 100 % of control | [14] 92 % of control | [15] 95 % of control

C=CCOC(=O)CCCCC(=O)OCC=C
inactive: dose: 100.0 mg/kg/injection, schedule: Q01DX009 (ip), vehicle: saline with Tween-80 94 % of control

CCCCCCCCCCCCCCCN(CCCl)CCCl
inactive: [16] 93 % of control | [17] 96 % of control

C=CCc1ccc(OC(=O)Nc2ccc(S(=O)(=O)CC)cc2)c(OC)c1
inactive: [16] 90 % of control | [17] 93 % of control | dose: 400.0 mg/kg/injection, schedule: Q01DX001 (ip), vehicle: carboxymethylcellulose (CMC) 93 % of control

O=[N+]([O-])c1ncn(C2CCCCO2)c1Br (stereo unspecified)
inactive: dose: 50.0 mg/kg/injection, schedule: Q04DX003 (ip), vehicle: gum acacia 99 % of control | dose: 100.0 mg/kg/injection, schedule: Q04DX003 (ip), vehicle: gum acacia 100 % of control | dose: 200.0 mg/kg/injection, schedule: Q04DX003 (ip), vehicle: gum acacia 100 % of control

CCOC(=O)CNc1cccc(C)c1
inactive: [13] 100 % of control | [14] 110 % of control | [15] 107 % of control

O=C1c2cc([N+](=O)[O-])ccc2-c2cc(Cl)c(Cl)cc21
inactive: [4] 91 % of control | [6] 94 % of control

C=C(Br)COCC
inactive: dose: 25.0 mg/kg/injection, schedule: Q01DX009 (ip), vehicle: acetone 97 % of control

C=CC1C(OCC)(OCC)CS1(=O)=O (stereo unspecified)
inactive: [18] 93 % of control | dose: 100.0 mg/kg/injection, schedule: Q01DX009 (ip), vehicle: acetone 106 % of control | [19] 98 % of control | dose: 200.0 mg/kg/injection, schedule: Q01DX009 (ip), vehicle: acetone 100 % of control | [20] 95 % of control | dose: 400.0 mg/kg/injection, schedule: Q01DX009 (ip), vehicle: acetone 106 % of control

C=Cc1cnc(NC(C)=O)c(C#N)n1
inactive: dose: 100.0 mg/kg/injection, schedule: Q01DX001 (ip), vehicle: Klucel (hydroxypropylcellulose) (HPC) 103 % of control | dose: 200.0 mg/kg/injection, schedule: Q01DX001 (ip), vehicle: Klucel (hydroxypropylcellulose) (HPC) 100 % of control

CC1N(C)CCC1(C)CN1c2ccccc2Sc2ccccc21 (stereo unspecified)
inactive: [21] 108 % of control | [22] 102 % of control

CN(C)CCN(C)Cc1cc(=O)[nH]c(=O)[nH]1
inactive: [21] 96 % of control | [22] 100 % of control | dose: 400.0 mg/kg/injection, schedule: Q04DX003 (ip), vehicle: saline 100 % of control

CC(/C=C\C1CCCCC1)=C\C=C\C(C)=C\C=N\Nc1ccc([N+](=O)[O-])cc1[N+](=O)[O-]
inactive: dose: 1.56 mg/kg/injection, schedule: Q01DX001 (ip), vehicle: saline with Tween-80 95 % of control | dose: 3.13 mg/kg/injection, schedule: Q01DX001 (ip), vehicle: saline with Tween-80 95 % of control | dose: 6.25 mg/kg/injection, schedule: Q01DX001 (ip), vehicle: saline with Tween-80 95 % of control | dose: 50.0 mg/kg/injection, schedule: Q01DX001 (ip), vehicle: saline with Tween-80 89 % of control

Cn1ccccc1=O
inactive: [7] 104 % of control | [8] 98 % of control | [9] 104 % of control

Fc1ccc(Cc2nnc(Cc3ccc(F)cc3)nn2)cc1
inactive: [13] 105 % of control | [14] 102 % of control

[O-][n+]1c2ccccc2nn1-c1ccccc1
inactive: [18] 95 % of control | [19] 96 % of control | [20] 97 % of control

CCOC(=O)Cc1cc(Cl)c2cc(C)ccc2n1
inactive: [18] 92 % of control | [19] 100 % of control | [20] 103 % of control and 89 % of control
